Patent EP4094756A1 (priority 2021, dated 2022)
Read-outs that look alike come from different tables or passages of the source.

What was measured:
[1] = tested on: VSV-ΔG SARS CoV-2 S pseudovirus; format: cell-based
[2] = MTT assay (cell survival); settings: monkey, vero cells
Protocol: (§1) Also, controls (solvent, Staurosporin (1 µM)) were prepared. Supernatants of cells were removed and substances applied for 8h, 24h and 48h at 37°C. • On day 2-4: fresh MTT [3-(4,5-Dimethylthiazol-2yl)-2,5-diphenyl-tetrazolium-bromid] was diluted in PBS to a final concentration of 5 mg/ml and 25 µl/well of MTT-solution were directly added to the wells and incubated for 1 h at 37°C. • MTT supernatant was removed and cells were lysed by 50 µl/well of 100 % DMSO and incubated for 1-5 minutes at room temperature. • Measurements were done at 562 nm in a photometer and % cell survival were calculated as = 100 × OD (sample) / OD (control).

SARS CoV-2 = format: cell-based
in vitro = settings: monkey, vero cells
Protocol: as §1

[3] = human, in vivo, iv; cited from earlier work

Compound: CC(C)=CCC[C@]1(C)[C@@H](CC=C(C)C)C[C@]2(CC=C(C)C)C(=O)C(CC=C(C)C)=C(O)[C@@]1(C(=O)C(C)C)C2=O [Hyperforin, hyperforin, reference compound]
- impact on the VSV pseudovirus [1]: did not have comparable impact

Compound: Cc1cc(O)c2c(=O)c3c(O)cc(O)c4c5c(O)cc(O)c6c(=O)c7c(O)cc(CO)c8c1c2c(c34)c(c65)c78 [Pseudohypericin, pseudohypericin]
- inhibition of the VSV pseudovirus ([1]; 1µg/ml): clearly inhibited
- MNTC [2]: 1 µg/mL

Compound: Oc1cc(O)c2c(c1)O[C@H](c1ccc(O)c(O)c1)[C@H](O)[C@H]2c1c(O)cc(O)c2c1O[C@H](c1ccc(O)c(O)c1)[C@H](O)[C@H]2c1c(O)cc(O)c2c1O[C@H](c1ccc(O)c(O)c1)[C@H](O)C2 [Procyanidin C1, reference compound]
- effect on the VSV pseudovirus [1]: no significant inhibition
- MNTC [2]: 50 µM

Compound: Cc1cc(O)c2c(=O)c3c(O)cc(O)c4c5c(O)cc(O)c6c(=O)c7c(O)cc(C)c8c1c2c(c34)c(c78)c65 [Hypericin, hypericin]
- viral load in diseased cells (PFU/ml) (SARS CoV-2): dramatically lowers the viral load
- MNTC (in vitro): 1 µg/mL
- inhibition of the VSV pseudovirus [1]: clearly inhibited
- initial peak plasma levels [3]: 29.5 ng/mL
